# US20210236466A1, “COMPOUNDS AND COMPOSITIONS FOR TREATING CONDITIONS ASSOCIATED WITH STING ACTIVITY” (IFM Due, Inc., priority 2018, published 2021)
# Target: T1, hSTING (Homo sapiens, UniProt Q86WV6, G230A/H232R/R293Q/R71H)
# T1 construct: host or cells: THP1-Dual KO-IFNAR2 cells
# Experiment: STING reporter assay: luciferase reporter activity in THP1-Dual KO-IFNAR2 cells stimulated with 2'3'cGAMP
# Format: cell-based
# Details: 15 μM 2'3'cGAMP, 24 h
# Experimental: STING pathway activation by the compounds described herein is measured using THP1-Dual™ cells (KO-IFNAR2).
# THP1-Dual™ KO-IFNAR2 Cells (obtained from invivogen) are maintained in RPMI, 10% FCS, 5 ml P/S, 2 mM L-glut, 10 mM Hepes, and 1 mM sodium pyruvate. Compounds are spotted in empty 384 well tissue culture plates (Greiner 781182) by Echo for a final concentration of 0.0017-100 μM. Cells are plated into the TC plates at 40 μL per well, 2×10E6 cells/mL. For activation with STING ligand, 2′3′cGAMP (MW 718.38, obtained from Invivogen), is prepared in Optimem media.
# The following solutions are prepared for each 1×384 plate: • Solution A: 2 mL Optimem with one of the following stimuli: • 60 uL of 10 mM 2′3′cGAMP->150 μM stock • Solution B: 2 mL Optimem with 60 μL Lipofectamine 2000->Incubate 5 min at RT
# 2 mL of solution A and 2 ml Solution B is mixed and incubated for 20 min at room temperature (RT). 20 uL of transfection solution (A+B) is added on top of the plated cells, with a final 2′3′cGAMP concentration of 15 μM. The plates are then centrifuged immediately at 340 g for 1 minute, after which they are incubated at 37° C. 5% CO2, >98% humidity for 24 h. Luciferase reporter activity is then measured. EC50 values are calculated by using standard methods known in the art.
# Luciferase reporter assay: 10 μL of supernatant from the assay is transferred to white 384-plate with flat bottom and squared wells, one pouch of QUANTI-Luc™ Plus is dissolved in 25 mL of water. 100 μL of QLC Stabilizer per 25 mL of QUANTI-Luc™ Plus solution is added. 50 μL of QUANTI-Luc™ Plus/QLC solution per well is then added. Luminescence is measured on a Platereader (e.g., Spectramax I3X (Molecular Devices GF3637001)).
# Luciferase reporter activity is then measured. EC50 values are calculated by using standard methods known in the art.
# T1 sequence (Q86WV6 whole entry R71H/G230A/H232R/R293Q): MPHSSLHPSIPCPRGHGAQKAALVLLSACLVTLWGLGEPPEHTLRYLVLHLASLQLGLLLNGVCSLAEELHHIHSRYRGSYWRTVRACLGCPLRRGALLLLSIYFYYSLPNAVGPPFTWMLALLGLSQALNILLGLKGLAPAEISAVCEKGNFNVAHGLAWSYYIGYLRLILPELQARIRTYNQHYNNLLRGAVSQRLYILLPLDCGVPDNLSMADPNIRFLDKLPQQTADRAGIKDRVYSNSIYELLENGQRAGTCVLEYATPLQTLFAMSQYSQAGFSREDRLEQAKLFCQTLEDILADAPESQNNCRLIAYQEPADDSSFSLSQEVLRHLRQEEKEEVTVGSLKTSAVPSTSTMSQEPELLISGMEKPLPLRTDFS
row,SMILES,EC50 [µM]
1,O=C(Nc1c[nH]nc1-c1ccccc1)NC1CCc2ccccc2C1 (stereo not drawn) [Compound 49],5 to 100
2,O=C(Nc1c[nH]nc1-c1ccccc1)NC1CCCc2ccccc21 (stereo not drawn) [Compound 50],5 to 100
3,"O=C(Nc1c[nH]nc1-c1ccccc1)NC1CCCC(c2ccccc2)C1 (stereo not drawn) [Compound 51, 3-(3-Phenyl-1H-pyrazol-4-yl)-1-(3-phenylcyclohexyl)urea]",5 to 100
4,CCCCc1ccc(NC(=O)Nc2cn[nH]c2)cc1 [Compound 52],5 to 100
5,CCCCC1CCC(NC(=O)Nc2c[nH]nc2-c2ccccc2)CC1 (stereo not drawn) [Compound 54],5 to 100
6,O=C(Nc1c[nH]nc1-c1ccccc1)NC1CCC(c2ccccc2)CC1 (stereo not drawn) [Compound 55],5 to 100
7,O=C(Nc1cccc(C(F)(F)F)c1)Nc1c[nH]nc1-c1ccccc1 [Compound 56],5 to 100
8,O=C(Nc1ccc(C(F)(F)F)cc1)Nc1cn[nH]c1 [Compound 57],5 to 100
9,O=C(Nc1ccc(C(F)(F)F)cc1)Nc1c[nH]nc1-c1ccccc1 [Compound 58],5 to 100
10,CCCCc1ccc(NC(=O)N2CCCc3n[nH]cc32)cc1 [Compound 60],5 to 100

# Results, then the compound that gave them:
row,EC50 [µM],SMILES
1,< 5,O=C(Nc1ccc(C2CCCCC2)nc1)Nc1c[nH]nc1-c1ccccc1 [Compound 36]
2,5 to 100,O=C(Nc1ccc(C(F)(F)F)nc1)Nc1c[nH]nc1-c1ccccc1 [Compound 37]
3,5 to 100,O=C(Nc1ccc(C2CCCCC2)cn1)Nc1c[nH]nc1-c1ccccc1 [Compound 38]
4,< 5,O=C(Nc1ccc(C(F)(F)F)cn1)Nc1c[nH]nc1-c1ccccc1 [Compound 39]
5,5 to 100,O=C(Nc1c[nH]nc1-c1ccccc1)NC1CCC2(CCC2)CC1 [Compound 40]
6,5 to 100,CCCCc1ccc(NC(=O)Nc2c[nH]nc2C)cc1 [Compound 41]
7,< 5,CCCCc1ccc(NC(=O)Nc2c[nH]nc2-c2ccsc2)cc1 [Compound 42]
8,< 5,CCCCc1ccc(NC(=O)Nc2c[nH]nc2-c2nccs2)cc1 [Compound 43]
9,5 to 100,CCCCc1ccc(NC(=O)Nc2c[nH]nc2C2CCCCC2)cc1 [Compound 44]
10,< 5,CCCCc1ccc(NC(=O)Nc2c[nH]nc2-c2ccccc2F)cc1 [Compound 45]
11,5 to 100,CCCCc1cccc(NC(=O)Nc2c[nH]nc2-c2ccccc2)c1 [Compound 46]
12,< 5,CCCCc1ccc(NC(=O)Nc2c[nH]nc2-c2ccccn2)cc1 [Compound 47]
13,5 to 100,CC(C)(C)C1CCC(NC(=O)Nc2c[nH]nc2-c2ccccc2)CC1 (stereo not drawn) [Compound 48]
14,< 5,"CCCCc1ccc(NC(=O)Nc2c[nH]nc2-c2ccccc2)cc1 [Compound 59, l-(4-Butylphenyl)-3-(3-phenyl-1H-pyrazol-4-yl)urea]"
